Measurements as given in patent US9205073B2, “Method for treating virus infection using derivative of aniline” (CHINA MEDICAL UNIVERSITY, priority 2014, dated 2015).

What was measured:
EV71 = assay: Enterovirus replication, plaque test in RD cells; assay type: cell-based, enterovirus type 71; settings: Enterovirus A, 36 h, read-out: inhibitory rate of EV 71 replication
Method: The RD cells were cultured in a 24-well culture plate with an initial density of 3×10^4 per well, as well as with 1 ml of 2% FBS-containing MEM medium per well. The cells were incubated in an incubator (37° C., 5% CO2) overnight. The medium was removed, and then, 1 ml of fresh 2% FBS-containing MEM medium was simultaneously added into each well. The RD cells were infected with an EV71 virus strain (M.O.I.=0.1). Different concentrations of compound 1 (final concentrations were 0, 2.5, 25 and 125 μM) were added into different wells respectively. RD cells were incubated in an incubator (37° C., 5% CO2) for 36 hours, and then the viral medium was collected for the following plaque test.
The RD cells were cultured in a 6-well culture plate, and incubated in an incubator (37° C., 5% CO2) overnight. The medium was removed, and then 200 μl of the above 10^4 times diluted viral medium was added into each well. The cells were infected for 1 hour. Then, 3 ml of a 3% agarose covering solution was added into each well. The cells were incubated in an incubator (37° C., 5% CO2) for 3 days. The covering solution was removed. Methyl blue was added into each well, and the plate was placed at room temperature overnight, and then washed with clear water, and dried. The number of plaques was counted to calculate the virus titer and inhibitory rate.

[1] = test system: PKR, OAS, IFN-α and interferon receptor; assay: Real-time PCR of anti-virus gene expression in JEV T1P1-infected TE671 cells; assay type: cell-based; settings: JEV T1P1-infected TE671 cells (M.O.I.=1), 8 hours, compound 125
Method: TE671 cells were cultured in a 6-well culture plate in accordance with the experimental conditions. The next day, TE671 cells were infected with the JEV T1P1 virus strain (M.O.I.=1), and various concentrations (the final concentration of compound 1 were about 0 or 125 respectively) of compound 1 were added into different wells simultaneously. The cells were then incubated in an incubator (37° C., 5% CO2) for 8 hours, and then collected. The cells were re-suspended with PBS and precipitated by centrifugation (2000 rpm, 5 minutes), and then extracted by Pure Link RNA Mini Kit to obtain the RNA. If the obtained RNA was desired to be stored at −20° C., then the RNA would have to reverse transcribed into cDNA using the following reverse transcription PCR (RT-PCR) steps: i) 11 μl RNA was placed into a microtube, and put into a 55° C. […]
The expression of anti-virus genes was analyzed by real-time PCR. […] Then, the amount of fluorescence of each cycle was determined by ABI Prism 7500 software. The fold difference of each gene as compared to the control group was calculated by using Ct to calculate ΔCt and ΔΔCt (i.e., ΔCt=Ct. exp−Ct. control, ΔΔCt=ΔCt. exp−ΔCt. mock). Then, 2^−ΔΔCt can thereby be calculated.

[2] = MTT assay, cell survival / CC50 in BHK-21 cells; assay type: cell-based; settings: hamster, read-out: concentration of 50% cytotoxicity (CC50)
Method: In this example, 3-(4,5-dimethylthiazol-2-yl)-2,5-diphenyl tetrazolium bromide (MTT) was used to determine if the survival rate of BHK-21 cells, TE671cells and RD cells would be influenced when being treated with different concentrations of compound 1 prepared in Example 1. The concentration of 50% cytotoxicity (CC50) of compound 1 in BHK-21 cells, TE671cells and RD cells was also calculated.
MTT is a water-soluble tetrazolium salt which can react in the mitochondrial respiratory chain in living cells to metabolize and reduce the tetrazolium bromide shown in the structure of MTT and to form an water-insoluble purple crystal formazan under the reaction of succinate dehydrogenase (SDH) and cytochrome c (cyt c). The amount of the produced crystal is directly proportional to the number of living cells (because the SDH will disappear from dead cells, and thus, the MTT cannot be reduced). Furthermore, a mitochondrium is an organelle in cells that is most sensitive to the environment, and thus, the MTT assay can serve as a marker for the survival rate of cells treated by the drug.
BHK-21 cells, TE671cells and RD cells were cultured in a 96-well culture plate, respectively, with an initial density of 3×10^3 per well, and with 100 μl of 2% FBS-containing MEM medium per well. […] The absorbances of the samples were measured by ELISA at a wavelength of 570/630 nm.

With `CCOC(=O)C1=C(Nc2cc(C)cc(C)c2)OCC1=O` [Compound 1, ethyl 2-(3′,5′-dimethylanilino)-4-oxo-4,5-dihydrofuran-3-carboxylate] the inhibition at 2.5 µM (EV71) was 4.6%, the inhibition at 25 µM (EV71) was 23% and the inhibition at 125 µM (EV71) was 24.6%. The “relative gene expression levels of PKR, OAS, IFN-α and interferon receptor” value [1] was “increase” and the CC50 at 48 h [2] was greater than 500 µM.
